These are literature values, as cited in patent EP4702989A1, “DRUG FOR TREATING LOCALLY ADVANCED UNRESECTABLE OR METASTATIC COLORECTAL CANCER AND USE THEREOF” (Shenzhen Chipscreen Biosciences Co., Ltd., priority 2023, dated 2024).

Read-outs that look alike come from different tables or passages of the source.

The conditions of data set [1]: FRESCO; >=3 treatment lines; sample size 278; 2018 JAMA.
The conditions of data set [2]: FRESCO-2; >=3 treatment lines; sample size 461; 2023 Lancet.
The conditions of data set [3]: CONCUR; >=3 treatment lines; sample size 136; 2015 Lancet.
For data set [4] the following is noted: CORRECT; >=2 treatment lines; sample size 505; 2013 Lancet.

Consider `CNC(=O)c1c(C)oc2cc(Oc3ncnc4cc(OC)c(OC)cc34)ccc12` [Fruquintinib], for which, in data set [1], the “Median PFS (months)” value is on record as 3.7 months and the ORR is recorded as 4.7%. In data set [2], the “Median PFS (months)” value was 3.7 months and the ORR was 1.5%.
For `CNC(=O)c1cc(Oc2ccc(NC(=O)Nc3ccc(Cl)c(C(F)(F)F)c3)c(F)c2)ccn1` [Regorafenib], the figures for the “Median PFS (months)” value in data set [3] and in data set [4] were 3.2 months and 1.9 months, respectively. Besides, the ORR in data set [3] is recorded as 4.4%; in data set [4], 1.0%.
